The results in this text go back to ChEMBL document CHEMBL4270498, “Targeting Eph/ephrin system in cancer therapy” (Eur J Med Chem, 2017).

Data set [1] concerns the target T1, Ephrin type-A receptor 2 (Mus musculus, UniProt Q03145). Description: Displacement of biotinylated ephrinA1-Fc from recombinant mouse EphA2 Fc chimera protein by ELISA.
Data set [2] concerns the target T1, Ephrin type-A receptor 2. Description: Binding affinity to histidine-tagged mouse EphA2 Fc fusion protein by SPR assay. On the technique in general: In SPR one partner is held on a chip, and binding of the other changes the refractive index at the surface.
Data set [3] deals with Ephrin type-A receptor 2 (Homo sapiens, UniProt P29317). Description: Binding affinity to EphA2 (unknown origin).
Ephrin type-A receptor 2 (Homo sapiens, UniProt P29317), sequence (P29317 whole entry): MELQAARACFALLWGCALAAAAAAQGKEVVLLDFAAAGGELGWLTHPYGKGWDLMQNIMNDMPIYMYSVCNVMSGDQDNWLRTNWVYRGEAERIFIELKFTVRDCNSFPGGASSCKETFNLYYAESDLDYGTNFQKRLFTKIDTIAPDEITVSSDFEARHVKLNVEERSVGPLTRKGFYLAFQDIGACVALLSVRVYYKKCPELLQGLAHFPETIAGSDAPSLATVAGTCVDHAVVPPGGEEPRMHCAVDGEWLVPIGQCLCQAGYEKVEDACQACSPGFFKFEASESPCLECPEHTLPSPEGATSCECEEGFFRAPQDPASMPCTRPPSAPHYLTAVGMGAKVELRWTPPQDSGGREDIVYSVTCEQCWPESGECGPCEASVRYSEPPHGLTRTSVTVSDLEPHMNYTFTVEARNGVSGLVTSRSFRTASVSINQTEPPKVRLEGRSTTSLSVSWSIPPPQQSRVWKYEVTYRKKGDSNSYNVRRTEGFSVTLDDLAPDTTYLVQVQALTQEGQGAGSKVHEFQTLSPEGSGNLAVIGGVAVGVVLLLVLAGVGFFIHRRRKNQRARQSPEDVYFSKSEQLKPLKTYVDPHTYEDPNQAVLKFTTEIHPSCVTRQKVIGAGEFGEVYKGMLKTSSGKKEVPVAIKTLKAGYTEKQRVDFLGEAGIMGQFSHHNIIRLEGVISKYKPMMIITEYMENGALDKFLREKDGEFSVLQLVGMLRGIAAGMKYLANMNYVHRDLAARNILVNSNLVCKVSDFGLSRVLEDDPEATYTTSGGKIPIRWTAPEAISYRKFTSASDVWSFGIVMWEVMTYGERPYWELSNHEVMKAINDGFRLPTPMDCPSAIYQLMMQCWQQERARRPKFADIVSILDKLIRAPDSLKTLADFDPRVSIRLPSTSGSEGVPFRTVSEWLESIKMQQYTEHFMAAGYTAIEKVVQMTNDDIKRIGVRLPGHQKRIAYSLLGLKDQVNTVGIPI
A short description of data set [4]: Half life in mouse at 30 mg/kg, iv. The class given is ADME, organism-based. The following applies: in vivo.
The target of data set [5] is T2, Ephrin type-B receptor 4 (Homo sapiens, UniProt P54760).
T2 sequence (P54760 whole entry): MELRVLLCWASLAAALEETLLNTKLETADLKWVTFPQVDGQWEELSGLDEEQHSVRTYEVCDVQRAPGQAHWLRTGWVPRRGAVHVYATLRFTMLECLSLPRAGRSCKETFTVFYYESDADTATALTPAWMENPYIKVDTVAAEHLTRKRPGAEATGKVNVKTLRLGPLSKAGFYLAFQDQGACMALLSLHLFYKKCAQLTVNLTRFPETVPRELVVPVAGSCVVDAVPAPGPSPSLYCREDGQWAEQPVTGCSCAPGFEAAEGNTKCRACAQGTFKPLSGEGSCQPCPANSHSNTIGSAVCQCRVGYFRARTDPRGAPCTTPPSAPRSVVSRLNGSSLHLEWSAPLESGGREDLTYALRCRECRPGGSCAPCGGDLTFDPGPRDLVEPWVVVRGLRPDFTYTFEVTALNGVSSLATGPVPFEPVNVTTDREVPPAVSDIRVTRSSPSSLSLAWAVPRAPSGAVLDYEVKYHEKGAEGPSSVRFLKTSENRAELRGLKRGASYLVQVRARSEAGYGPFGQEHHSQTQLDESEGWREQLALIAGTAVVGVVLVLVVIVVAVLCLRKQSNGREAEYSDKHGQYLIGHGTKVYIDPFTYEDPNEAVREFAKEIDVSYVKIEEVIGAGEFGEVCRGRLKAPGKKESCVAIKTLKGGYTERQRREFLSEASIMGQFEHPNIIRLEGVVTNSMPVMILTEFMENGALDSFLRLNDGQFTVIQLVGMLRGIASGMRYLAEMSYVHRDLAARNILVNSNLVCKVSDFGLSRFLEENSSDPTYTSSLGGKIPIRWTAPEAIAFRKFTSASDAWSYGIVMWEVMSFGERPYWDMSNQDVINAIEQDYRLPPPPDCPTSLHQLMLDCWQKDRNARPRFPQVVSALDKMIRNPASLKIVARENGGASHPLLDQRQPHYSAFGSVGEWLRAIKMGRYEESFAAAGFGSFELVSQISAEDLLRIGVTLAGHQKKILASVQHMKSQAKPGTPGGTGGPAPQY
Nature of the data set: Binding affinity to Fc-tagged EphB4 (unknown origin) assessed as reduction in ephrin-B2 binding by SPR assay.

The IC50 is the point on the concentration scale where inhibition reaches its midpoint. What is called Kd is the constant that tells how readily two partners part at equilibrium. The Ki is a dissociation constant, usually derived from enzyme kinetics or from competition with a known ligand. A high value points to weaker binding. The half-life is the time in which the quantity being followed falls by half. A high value points to slow loss.

T1 sequence (Q03145 whole entry, the tested form may be a part): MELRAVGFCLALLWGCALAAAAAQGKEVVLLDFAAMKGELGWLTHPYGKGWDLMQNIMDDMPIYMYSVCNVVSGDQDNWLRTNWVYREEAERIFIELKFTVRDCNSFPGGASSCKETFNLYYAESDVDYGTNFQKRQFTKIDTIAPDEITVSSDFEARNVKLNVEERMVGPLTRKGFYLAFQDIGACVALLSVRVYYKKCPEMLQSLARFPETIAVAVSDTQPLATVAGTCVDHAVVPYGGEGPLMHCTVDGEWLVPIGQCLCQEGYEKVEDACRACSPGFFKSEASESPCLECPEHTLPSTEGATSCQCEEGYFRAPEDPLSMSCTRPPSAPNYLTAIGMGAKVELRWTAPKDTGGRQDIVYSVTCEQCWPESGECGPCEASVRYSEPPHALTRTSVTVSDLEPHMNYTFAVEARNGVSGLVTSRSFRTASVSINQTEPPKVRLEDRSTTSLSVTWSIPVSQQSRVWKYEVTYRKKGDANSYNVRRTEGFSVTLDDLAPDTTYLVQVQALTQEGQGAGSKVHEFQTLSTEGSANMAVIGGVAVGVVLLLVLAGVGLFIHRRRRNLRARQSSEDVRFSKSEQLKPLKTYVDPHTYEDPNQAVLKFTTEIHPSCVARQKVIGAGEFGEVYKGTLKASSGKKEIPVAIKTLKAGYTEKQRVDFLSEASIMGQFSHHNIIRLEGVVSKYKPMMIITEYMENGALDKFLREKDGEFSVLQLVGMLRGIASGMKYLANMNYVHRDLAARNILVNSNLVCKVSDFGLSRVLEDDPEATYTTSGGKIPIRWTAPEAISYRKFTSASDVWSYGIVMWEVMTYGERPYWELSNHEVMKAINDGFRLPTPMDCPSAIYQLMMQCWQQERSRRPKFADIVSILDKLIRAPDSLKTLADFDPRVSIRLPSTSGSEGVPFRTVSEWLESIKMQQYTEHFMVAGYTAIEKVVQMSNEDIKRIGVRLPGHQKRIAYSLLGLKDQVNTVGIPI

Regarding `C[C@H](CCC(=O)O)[C@H]1CC[C@H]2[C@@H]3CC[C@@H]4C[C@H](O)CC[C@]4(C)[C@H]3CC[C@]12C` [LITHOCHOLIC ACID], in data set [1], the 50% inhibitory concentration (IC50) is 57 µM.
As to `CC(C)C[C@H](NC(=O)[C@H](Cc1c[nH]c2ccccc12)NC(=O)[C@@H](N)CO)C(=O)N[C@@H](C)C(=O)N[C@@H](Cc1ccc(O)cc1)C(=O)N1CCC[C@H]1C(=O)NCC(=O)N[C@@H](C)C(=O)N[C@H](C(=O)N[C@@H](CO)C(=O)N[C@@H](Cc1ccc(O)cc1)C(=O)N[C@@H](CCCN=C(N)N)C(=O)O)C(C)C`, the Kd in data set [2] was determined as 0.7 µM.
Regarding `C[C@H](CCC(=O)N[C@H](CC(=O)O)Cc1c[nH]c2ccccc12)[C@H]1CC[C@H]2[C@@H]3CC[C@@H]4CCCC[C@]4(C)[C@H]3CC[C@]12C`, the inhibitory constant (Ki) in data set [3] was greater than 15 µM.
For the molecule `CCCC[C@H](NC(=O)[C@@H]1CCCN1C(=O)[C@@H](NC(=O)[C@H](CO)NC(=O)[C@H](CC(=O)O)NC(=O)[C@@H]1CCCN1C(=O)[C@H](Cc1ccc(O)cc1)NC(=O)[C@H](C)NC(=O)[C@H](CO)NC(=O)COc1ccc(F)c(Cl)c1)C(C)C)C(=O)N[C@@H](CCO)C(=O)N[C@@H](CO)C(=O)N[C@@H](CCCCNC(=O)CCCc1cn(CCCCCOC(=O)COCC(=O)O[C@@H](C(=O)O[C@H]2C[C@@]3(O)[C@@H](OC(=O)c4ccccc4)[C@@H]4[C@]5(OC(C)=O)CO[C@@H]5C[C@H](O)[C@@]4(C)C(=O)[C@H](OC(C)=O)C(=C2C)C3(C)C)[C@@H](NC(=O)c2ccccc2)c2ccccc2)nn1)C(=O)O`, the half-life in data set [4] was greater than 2 h.
H-TNYLFSPNGPIARAW-OH: in data set [5], the dissociation constant (Kd) was determined as 0.002 µM.
